What was measured:
[1] = target: T1, recombinant human Wee1A kinase (Homo sapiens, UniProt P30291); assay: LanthaScreen Europium (Eu) Kinase Binding Assay, Wee1A kinase (TR-FRET tracer displacement); conditions: 30 nM tracer 178, 5 nM Wee1A kinase, 60 minutes at room temperature
T1 construct: full length Wee1A kinase was expressed by baculovirus in insect cells; purchased Invitrogen PV3817; host or cells: insect cells (baculovirus)

[2] = tested on: Cdk1 phosphorylated on tyrosine 15; assay: pCDK1 Y15 AlphaLISA target engagement assay in ACHN cells; type: cell-based; conditions: Homo sapiens, treated for 4 h, 7 to 5000 nM, read-out: TE Weel (ALISA): AlphaLISA CDK1 Tyr15 Phosphorylation EC50
Description: (§1) ACHN renal cell carcinoma cell line (ATCC) was cultured in Minimum Essential Medium Eagle supplemented with 10% fetal calf serum (Sigma), 1% Penicillin-Streptomycin and 10 mM HEPES buffer (HyClone). Cell cultures were kept in a humidified incubator at 37° C. and 5% CO2. Cells were routinely tested for Mycoplasma contamination.
For target engagement assessment, quantification of Cdk1 phosphorylated on tyrosine 15 was detected using pCDK1 Y^15 AlphaLISA assay (Perkin Elmer). ACHN cells were seeded into tissue culture treated 96-well plates (VWR) to a density of 20,000 cells per well. 24 h post seeding cells were treated for 4 h with compounds at concentrations ranging from 7 to 5000 nM. Cells were washed with PBS and lysed in 50 μl alphaLISA lysis buffer before freezing at −80° C. 10 μl of the lysate was transferred to 384 well plates and incubated with alphaLISA donor and acceptor beads according to the manufacturer's instructions. Dose response curves and EC50 values were calculated and visualized using GraphPad Prism version 9.

[3] = tested on: Cdk1 phosphorylated on tyrosine 15; assay: High-content imaging of pCdk1 Y15 by immunofluorescence in ACHN cells; type: cell-based; conditions: Homo sapiens, high-content imaging (IF), 4 h, 7 to 5000 nM, read-out: CDK1 Tyr15 Phosphorylation EC50 (IC50)
How it was run: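 ACHN cells were treated with compounds at 7–5000 nM for 4 h, then fixed, permeabilised and immunostained for pCDK1 Y15, with DAPI as nuclear counterstain. Automated imaging gave the percentage of cells with nuclear pCDK1 Y15 positivity relative to DMSO control. EC50 values came from dose-response curves.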

ACHN cells = assay: Cell Titer Glo viability assay in ACHN cells; type: cell-based; conditions: Homo sapiens, 144 h, 0.17 to 10,000 nM
Description: as §1
ACHN cells were seeded at a density of 400 cells per well in tissue culture treated 384 well plates (Corning Costar). After overnight incubation, cells were treated with drugs at concentrations ranging from 0.17 to 10,000 nM. Viability compared to untreated control was assessed at 144 h using Cell Titer Glo assay 2.0 (Promega).

T1 sequence (P30291 whole entry): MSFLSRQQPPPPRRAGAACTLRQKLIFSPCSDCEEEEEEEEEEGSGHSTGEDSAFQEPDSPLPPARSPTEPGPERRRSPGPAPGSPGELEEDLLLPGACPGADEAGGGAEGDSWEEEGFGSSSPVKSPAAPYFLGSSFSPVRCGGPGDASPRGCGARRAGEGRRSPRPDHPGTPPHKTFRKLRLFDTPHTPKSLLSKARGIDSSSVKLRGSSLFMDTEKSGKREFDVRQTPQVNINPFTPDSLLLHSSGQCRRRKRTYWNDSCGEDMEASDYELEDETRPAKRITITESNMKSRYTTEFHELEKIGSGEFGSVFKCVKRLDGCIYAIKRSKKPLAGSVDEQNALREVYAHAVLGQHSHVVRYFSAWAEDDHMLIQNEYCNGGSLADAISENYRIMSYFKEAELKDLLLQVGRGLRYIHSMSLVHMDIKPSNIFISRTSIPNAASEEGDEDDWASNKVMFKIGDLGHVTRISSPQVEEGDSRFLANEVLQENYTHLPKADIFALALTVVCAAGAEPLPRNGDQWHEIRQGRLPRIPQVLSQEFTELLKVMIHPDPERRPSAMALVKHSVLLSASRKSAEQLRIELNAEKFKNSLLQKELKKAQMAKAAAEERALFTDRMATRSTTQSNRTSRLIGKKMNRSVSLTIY

Row | SMILES | IC50 [1] [nM] | EC50 [2] [nM] | EC50 [3] [nM] | EC50 (ACHN cells) [nM]
1 | COc1nc(Nc2ccc(O[C@H]3CCN(C)C3)c(C)c2)ncc1C(=O)Nc1c(Cl)ccc(O)c1C [Compound 155, (S)—N-(6-chloro-3-hydroxy-2-methylphenyl)-4-methoxy-2-((3-methyl-4-((1-methylpyrrolidin-3-yl)oxy)phenyl)amino)pyrimidine-5-carboxamide] | ≤ 10 | ≤ 500 | – | –
2 | COc1nc(Nc2ccc(O[C@H]3CCN(C)C3)c(C)c2)ncc1C(=O)Nc1c(Cl)cccc1Cl [Compound 154, (S)—N-(2,6-dichlorophenyl)-4-methoxy-2-((3-methyl-4-((1-methylpyrrolidin-3-yl)oxy)phenyl)amino)pyrimidine-5-carboxamide] | ≤ 10 | > 2500 | 100 to 500 | –
3 | COc1nc(Nc2cnn(C)c2)ncc1C(=O)Nc1c(Cl)cccc1Cl [Compound 182] | 10 to 100 | > 2500 | 100 to 500 | 1000 to 5000
4 | COc1nc(Nc2cnn(C3CCN(C)CC3)c2)ncc1C(=O)Nc1c(Cl)cccc1Cl [Compound 163] | ≤ 10 | > 2500 | 100 to 500 | 250 to 1000
5 | COc1nc(Nc2ccc3c(cnn3CCN(C)C)c2)ncc1C(=O)Nc1c(Cl)cccc1Cl [Compound 174] | ≤ 10 | > 2500 | – | –
6 | COc1nc(Nc2ccc3c(cnn3C)c2)ncc1C(=O)Nc1c(Cl)cccc1Cl [Compound 176] | 10 to 100 | > 2500 | – | –
7 | COc1nc(Nc2ccc(OC3CCNCC3)c(C)c2)ncc1C(=O)Nc1c(Cl)cccc1Cl [Compound 180] | ≤ 10 | 500 to 1000 | 100 to 500 | 250 to 1000
8 | COc1nc(Nc2ccc(OC3CCNCC3)cc2)ncc1C(=O)Nc1c(Cl)cccc1Cl [Compound 179] | ≤ 10 | > 2500 | 100 to 500 | 250 to 1000
9 | COc1nc(Nc2ccc(O[C@H]3CCNC3)c(C)c2)ncc1C(=O)Nc1c(Cl)cccc1Cl [Compound 177] | ≤ 10 | > 2500 | – | –
10 | COc1nc(Nc2ccc(C3CCN(C)CC3)c(C)c2)ncc1C(=O)Nc1cc(N)ccc1C [Compound 171] | 10 to 100 | > 2500 | – | –
11 | COc1nc(Nc2ccc(C3(C#N)CCN(C)CC3)c(C)c2)ncc1C(=O)Nc1c(Cl)cccc1Cl [Compound 181] | ≤ 10 | ≤ 500 | – | –
12 | COc1nc(Nc2ccc(C3CCN(C)CC3)c(C)c2)ncc1C(=O)Nc1c(C)ccc2[nH]ncc12 [Compound 172] | ≤ 10 | 500 to 1000 | 100 to 500 | 250 to 1000
13 | COc1nc(Nc2ccc(C3CCN(C)CC3)c(C#N)c2)ncc1C(=O)Nc1c(Cl)cccc1Cl [Compound 156, 2-((3-cyano-4-(1-methylpiperidin-4-yl)phenyl)amino)-N-(2,6-dichlorophenyl)-4-methoxypyrimidine-5-carboxamide] | ≤ 10 | 500 to 1000 | – | –
14 | COc1nc(Nc2ccc(O[C@@H]3CCNC3)c(C)c2)ncc1C(=O)Nc1c(Cl)cccc1Cl [Compound 178] | ≤ 10 | 500 to 1000 | ≤ 100 | 250 to 1000
15 | COc1nc(Nc2ccc(C3CCNCC3)c(C)c2)ncc1C(=O)Nc1c(Cl)cccc1Cl [Compound 175] | ≤ 10 | ≤ 500 | ≤ 100 | ≤ 250
16 | COc1nc(Nc2ccc3c(cnn3C3CCN(C)C3)c2)ncc1C(=O)Nc1c(Cl)cccc1Cl (centres unmarked) [Compound 173] | 10 to 100 | > 2500 | – | –

Reference: patent US20260207618A1, “PYRIMIDINE CARBOXAMIDE COMPOUNDS” (Acrivon Therapeutics, Inc., priority 2022, published 2026)
